{"source": "paper PMC7113773", "about": "(Antiviral Research, 2014)", "system": "NA (H275Y), OSV-resistant mutant of influenza H1N1 (A/California/04/2009)", "format": "biochemical, influenza A virus", "data": [{"molecule": "Cc1cc2c(c(=S)[nH]1)C(=O)O/C2=C\\c1c[nH]c2ccc(F)cc12", "note": "[Compound 15a, (Z)-1-((5-Fluoro-1H-indol-3-yl)methylene)-6-methyl-4-thioxo-4,5-dihydrofuro[3,4-c]pyridin-3(1H)-one]", "values": [{"measurement": "function of oseltamivir-resistant NA (H275Y)", "value": "suppressed"}]}]}
